In US20140329863A1 (priority 2011, published 2014):
pEC50: −log10 of the molar value.

Test system: PrP^Sc in dividing ScN2a-cl3 cells
Assay: not given
Type: cell-based, mouse
Design: Dividing ELISA pEC50 (μM) 1st Expt. / Dividing ELISA pEC50 (μM) 2nd Expt. / Dividing ELISA pEC50 (μM) 3rd Expt. / Dividing ELISA pEC50 (μM) Mean: unit not given here
Conditions: AMT analogs tested for potency
Work on `COc1ccc(-c2csc(Nc3ccc(C)cn3)n2)c(OC)c1` [IND74, [4-(2,4-Dimethoxy-phenyl)-thiazol-2-yl]-(5-methyl-pyridin-2-yl)-amine] yielded a pEC50 of 5.50.
For `Cc1ccnc(Nc2nc(-c3ccc(OC(F)(F)F)cc3)cs2)c1` [IND78, (4-Methyl-pyridin-2-yl)-[4-(4-trifluoromethoxy-phenyl)-thiazol-2-yl]-amine], the pEC50 was less than 4.49.
Molecule `COc1ccnc(Nc2nc(-c3ccncc3)cs2)c1` [IND111, (4-Methoxy-pyridin-2-yl)-(4-pyridin-4-yl-thiazol-2-yl)-amine] has a pEC50 of 6.22.
In the case of `COc1ccc(Nc2nc(-c3ccncc3)cs2)nc1` [IND119, (5-Methoxy-pyridin-2-yl)-(4-pyridin-4-yl-thiazol-2-yl)-amine], the pEC50 was 5.88.
In the case of `COc1ccc(Nc2nc(-c3cc4ccccc4o3)cs2)nc1` [IND121, (4-Benzofuran-2-yl-thiazol-2-yl)-(5-methoxy-pyridin-2-yl)-amine], the pEC50 was 5.76.
Molecule `COc1ccc(Nc2nc(-c3ccc(-c4ccccc4)cc3)cs2)nc1` [IND122, (4-Biphenyl-4-yl-thiazol-2-yl)-(5-methoxy-pyridin-2-yl)-amine] has a pEC50 of 6.36.

Same assay, conditions: ScN2a-cl3 dividing cells; 1st determination
With `COc1ccc(-c2csc(Nc3cccc(C)n3)n2)cc1OC` [compound 4, [4-(3,4-dimethoxyphenyl)-thiazol-2-yl]-(6-methylpyridin-2-yl)-amine] the “Dividing ELISA pEC50 (μM) 1st Expt.” value was 5.25.
For `COc1ccc(-c2csc(Nc3ccncc3)n2)cc1OC` [compound 8, [4-(3,4-dimethoxyphenyl)-thiazol-2-yl]pyridin-4-yl-amine], the “Dividing ELISA pEC50 (μM) 1st Expt.” value was greater than 4.5.
In the case of `COc1ccc(-c2csc(Nc3ccccc3)n2)cc1OC` [compound 9, [4-(3,4-dimethoxyphenyl)-thiazol-2-yl]-phenyl-amine], the “Dividing ELISA pEC50 (μM) 1st Expt.” value was 5.13.
In the case of `COc1ccc(-c2csc(Nc3ncccn3)n2)cc1OC` [compound 10, [4-(3,4-dimethoxyphenyl)-thiazol-2-yl]pyrimidin-2-yl-amine], the “Dividing ELISA pEC50 (μM) 1st Expt.” value was 5.49.

Same assay, conditions: ScN2a-cl3 dividing cells; 2nd determination
With `COc1ccc(-c2csc(Nc3cccc(C)n3)n2)cc1OC` [compound 4, [4-(3,4-dimethoxyphenyl)-thiazol-2-yl]-(6-methylpyridin-2-yl)-amine] the “Dividing ELISA pEC50 (μM) 2nd Expt.” value was 5.92.
With `COc1ccc(-c2csc(Nc3ccncc3)n2)cc1OC` [compound 8, [4-(3,4-dimethoxyphenyl)-thiazol-2-yl]pyridin-4-yl-amine] the “Dividing ELISA pEC50 (μM) 2nd Expt.” value was 4.60.
For `COc1ccc(-c2csc(Nc3ccccc3)n2)cc1OC` [compound 9, [4-(3,4-dimethoxyphenyl)-thiazol-2-yl]-phenyl-amine], the “Dividing ELISA pEC50 (μM) 2nd Expt.” value was 5.14.
In the case of `COc1ccc(-c2csc(Nc3ncccn3)n2)cc1OC` [compound 10, [4-(3,4-dimethoxyphenyl)-thiazol-2-yl]pyrimidin-2-yl-amine], the “Dividing ELISA pEC50 (μM) 2nd Expt.” value was 5.17.

Same assay, conditions: ScN2a-cl3 dividing cells; 3rd determination
With `COc1ccc(-c2csc(Nc3cccc(C)n3)n2)cc1OC` [compound 4, [4-(3,4-dimethoxyphenyl)-thiazol-2-yl]-(6-methylpyridin-2-yl)-amine] the “Dividing ELISA pEC50 (μM) 3rd Expt.” value was 5.65.
In the case of `COc1ccc(-c2csc(Nc3ccncc3)n2)cc1OC` [compound 8, [4-(3,4-dimethoxyphenyl)-thiazol-2-yl]pyridin-4-yl-amine], the “Dividing ELISA pEC50 (μM) 3rd Expt.” value was 4.57.
In the case of `COc1ccc(-c2csc(Nc3ccccc3)n2)cc1OC` [compound 9, [4-(3,4-dimethoxyphenyl)-thiazol-2-yl]-phenyl-amine], the “Dividing ELISA pEC50 (μM) 3rd Expt.” value was 5.35.
For `COc1ccc(-c2csc(Nc3ncccn3)n2)cc1OC` [compound 10, [4-(3,4-dimethoxyphenyl)-thiazol-2-yl]pyrimidin-2-yl-amine], the “Dividing ELISA pEC50 (μM) 3rd Expt.” value was 5.73.

Same assay, conditions: ScN2a-cl3 dividing cells; mean of three determinations
In the case of `COc1ccc(-c2csc(Nc3cccc(C)n3)n2)cc1OC` [compound 4, [4-(3,4-dimethoxyphenyl)-thiazol-2-yl]-(6-methylpyridin-2-yl)-amine], the “Dividing ELISA pEC50 (μM) Mean” value was 5.61.
In the case of `COc1ccc(-c2csc(Nc3ccccc3)n2)cc1OC` [compound 9, [4-(3,4-dimethoxyphenyl)-thiazol-2-yl]-phenyl-amine], the “Dividing ELISA pEC50 (μM) Mean” value was 5.21.
For `COc1ccc(-c2csc(Nc3ncccn3)n2)cc1OC` [compound 10, [4-(3,4-dimethoxyphenyl)-thiazol-2-yl]pyrimidin-2-yl-amine], the “Dividing ELISA pEC50 (μM) Mean” value was 5.46.

Same assay, conditions: Table 29; 2-AMT analogs tested for potency; usually n = 3 or more
`COc1ccc(-c2csc(Nc3ccc(C)cn3)n2)c(OC)c1` [IND74, [4-(2,4-Dimethoxy-phenyl)-thiazol-2-yl]-(5-methyl-pyridin-2-yl)-amine] gave a pEC50 of 5.50.
For `Cc1ccnc(Nc2nc(-c3ccc(OC(F)(F)F)cc3)cs2)c1` [IND78, (4-Methyl-pyridin-2-yl)-[4-(4-trifluoromethoxy-phenyl)-thiazol-2-yl]-amine], the pEC50 was less than 4.49.

Same assay, conditions: read-out: Dividing ELISA EC50 (μM) 1st Expt.; ScN2a-cl3 dividing cells; 1st determination
Work on `COc1ccc(-c2csc(Nc3cccc(C)n3)n2)cc1OC` [compound 4, [4-(3,4-dimethoxyphenyl)-thiazol-2-yl]-(6-methylpyridin-2-yl)-amine] yielded an EC50 of 5.62 µM.
Work on `COc1ccc(-c2csc(Nc3ccncc3)n2)cc1OC` [compound 8, [4-(3,4-dimethoxyphenyl)-thiazol-2-yl]pyridin-4-yl-amine] yielded an EC50 greater than 32 µM.
In the case of `COc1ccc(-c2csc(Nc3ccccc3)n2)cc1OC` [compound 9, [4-(3,4-dimethoxyphenyl)-thiazol-2-yl]-phenyl-amine], the EC50 was 7.4 µM.
`COc1ccc(-c2csc(Nc3ncccn3)n2)cc1OC` [compound 10, [4-(3,4-dimethoxyphenyl)-thiazol-2-yl]pyrimidin-2-yl-amine] showed an EC50 of 3.25 µM.

Same assay, conditions: read-out: Dividing ELISA EC50 (μM) 2nd Expt.; ScN2a-cl3 dividing cells; 2nd determination
For `COc1ccc(-c2csc(Nc3cccc(C)n3)n2)cc1OC` [compound 4, [4-(3,4-dimethoxyphenyl)-thiazol-2-yl]-(6-methylpyridin-2-yl)-amine], the EC50 was 1.19 µM.
With `COc1ccc(-c2csc(Nc3ccncc3)n2)cc1OC` [compound 8, [4-(3,4-dimethoxyphenyl)-thiazol-2-yl]pyridin-4-yl-amine] the EC50 was 25.2 µM.
For `COc1ccc(-c2csc(Nc3ccccc3)n2)cc1OC` [compound 9, [4-(3,4-dimethoxyphenyl)-thiazol-2-yl]-phenyl-amine], the EC50 was 7.29 µM.
In the case of `COc1ccc(-c2csc(Nc3ncccn3)n2)cc1OC` [compound 10, [4-(3,4-dimethoxyphenyl)-thiazol-2-yl]pyrimidin-2-yl-amine], the EC50 was 6.71 µM.

Same assay, conditions: read-out: Dividing ELISA EC50 (μM) 3rd Expt.; ScN2a-cl3 dividing cells; 3rd determination
In the case of `COc1ccc(-c2csc(Nc3cccc(C)n3)n2)cc1OC` [compound 4, [4-(3,4-dimethoxyphenyl)-thiazol-2-yl]-(6-methylpyridin-2-yl)-amine], the EC50 was 2.22 µM.
With `COc1ccc(-c2csc(Nc3ccncc3)n2)cc1OC` [compound 8, [4-(3,4-dimethoxyphenyl)-thiazol-2-yl]pyridin-4-yl-amine] the EC50 was 26.9 µM.
With `COc1ccc(-c2csc(Nc3ccccc3)n2)cc1OC` [compound 9, [4-(3,4-dimethoxyphenyl)-thiazol-2-yl]-phenyl-amine] the EC50 was 4.45 µM.
Work on `COc1ccc(-c2csc(Nc3ncccn3)n2)cc1OC` [compound 10, [4-(3,4-dimethoxyphenyl)-thiazol-2-yl]pyrimidin-2-yl-amine] yielded an EC50 of 1.85 µM.

Same assay, conditions: read-out: Dividing ELISA EC50 (μM) Mean; ScN2a-cl3 dividing cells; mean of three determinations
`COc1ccc(-c2csc(Nc3cccc(C)n3)n2)cc1OC` [compound 4, [4-(3,4-dimethoxyphenyl)-thiazol-2-yl]-(6-methylpyridin-2-yl)-amine] showed an EC50 of 3.01 µM.
`COc1ccc(-c2csc(Nc3ccncc3)n2)cc1OC` [compound 8, [4-(3,4-dimethoxyphenyl)-thiazol-2-yl]pyridin-4-yl-amine] showed an EC50 greater than 28 µM.
`COc1ccc(-c2csc(Nc3ccccc3)n2)cc1OC` [compound 9, [4-(3,4-dimethoxyphenyl)-thiazol-2-yl]-phenyl-amine] showed an EC50 of 6.38 µM.
In the case of `COc1ccc(-c2csc(Nc3ncccn3)n2)cc1OC` [compound 10, [4-(3,4-dimethoxyphenyl)-thiazol-2-yl]pyrimidin-2-yl-amine], the EC50 was 3.94 µM.

Test system: not given
Assay: not given
Conditions: not given
With `COc1ccc(-c2csc(Nc3ccc(C)cn3)n2)c(OC)c1` [IND74, [4-(2,4-Dimethoxy-phenyl)-thiazol-2-yl]-(5-methyl-pyridin-2-yl)-amine] the melting point was 157 to 158 °C.
For `Cc1ccnc(Nc2nc(-c3ccc(OC(F)(F)F)cc3)cs2)c1` [IND78, (4-Methyl-pyridin-2-yl)-[4-(4-trifluoromethoxy-phenyl)-thiazol-2-yl]-amine], the melting point was 275 to 282 °C.
`COc1ccnc(Nc2nc(-c3ccncc3)cs2)c1` [IND111, (4-Methoxy-pyridin-2-yl)-(4-pyridin-4-yl-thiazol-2-yl)-amine] gave a melting point of 190 to 192 °C.
`COc1ccc(Nc2nc(-c3ccncc3)cs2)nc1` [IND119, (5-Methoxy-pyridin-2-yl)-(4-pyridin-4-yl-thiazol-2-yl)-amine] showed a melting point of 213 to 214 °C.
`COc1ccc(Nc2nc(-c3cc4ccccc4o3)cs2)nc1` [IND121, (4-Benzofuran-2-yl-thiazol-2-yl)-(5-methoxy-pyridin-2-yl)-amine] gave a melting point of 185 to 186 °C.
`COc1ccc(Nc2nc(-c3ccc(-c4ccccc4)cc3)cs2)nc1` [IND122, (4-Biphenyl-4-yl-thiazol-2-yl)-(5-methoxy-pyridin-2-yl)-amine] gave a melting point of 212 to 213 °C.
With `COc1ccc(-c2csc(Nc3cccc(C)n3)n2)cc1OC` [compound 4, [4-(3,4-dimethoxyphenyl)-thiazol-2-yl]-(6-methylpyridin-2-yl)-amine] the melting point was 264 to 266 °C.
`COc1ccc(-c2csc(Nc3ccncc3)n2)cc1OC` [compound 8, [4-(3,4-dimethoxyphenyl)-thiazol-2-yl]pyridin-4-yl-amine] gave a melting point of 205 to 207 °C.
For `COc1ccc(-c2csc(Nc3ccccc3)n2)cc1OC` [compound 9, [4-(3,4-dimethoxyphenyl)-thiazol-2-yl]-phenyl-amine], the melting point was 170 to 174 °C.
With `COc1ccc(-c2csc(Nc3ncccn3)n2)cc1OC` [compound 10, [4-(3,4-dimethoxyphenyl)-thiazol-2-yl]pyrimidin-2-yl-amine] the melting point was 225 to 228 °C.

Test system: N2a-cl3 cells
Assay: cells
Conditions: Mus musculus, N2a-cl3, read-out: Dividing Calcein EC50 (μM) Mean (n = 3)
With `COc1ccc(-c2csc(Nc3cccc(C)n3)n2)cc1OC` [compound 4, [4-(3,4-dimethoxyphenyl)-thiazol-2-yl]-(6-methylpyridin-2-yl)-amine] the EC50 was greater than 32 µM.
Work on `COc1ccc(-c2csc(Nc3ccncc3)n2)cc1OC` [compound 8, [4-(3,4-dimethoxyphenyl)-thiazol-2-yl]pyridin-4-yl-amine] yielded an EC50 greater than 32 µM.
`COc1ccc(-c2csc(Nc3ccccc3)n2)cc1OC` [compound 9, [4-(3,4-dimethoxyphenyl)-thiazol-2-yl]-phenyl-amine] gave an EC50 greater than 32 µM.
For `COc1ccc(-c2csc(Nc3ncccn3)n2)cc1OC` [compound 10, [4-(3,4-dimethoxyphenyl)-thiazol-2-yl]pyrimidin-2-yl-amine], the EC50 was greater than 32 µM.

Test system: PrP^Sc in nondividing ScN2a-cl3 cells
Assay: not given
Type: cell-based, mouse
Conditions: read-out: Non-Dividing ELISA EC50 (μM) Mean (n = 3); ScN2a-c13 non-dividing cells; mean n = 3
For `COc1ccc(-c2csc(Nc3cccc(C)n3)n2)cc1OC` [compound 4, [4-(3,4-dimethoxyphenyl)-thiazol-2-yl]-(6-methylpyridin-2-yl)-amine], the EC50 was greater than 32 µM.
Work on `COc1ccc(-c2csc(Nc3ccncc3)n2)cc1OC` [compound 8, [4-(3,4-dimethoxyphenyl)-thiazol-2-yl]pyridin-4-yl-amine] yielded an EC50 greater than 32 µM.
Molecule `COc1ccc(-c2csc(Nc3ccccc3)n2)cc1OC` [compound 9, [4-(3,4-dimethoxyphenyl)-thiazol-2-yl]-phenyl-amine] has an EC50 greater than 32 µM.
Work on `COc1ccc(-c2csc(Nc3ncccn3)n2)cc1OC` [compound 10, [4-(3,4-dimethoxyphenyl)-thiazol-2-yl]pyrimidin-2-yl-amine] yielded an EC50 greater than 32 µM.
